Assays:
[1] = molecular target: T1, hLPA4 (Homo sapiens, UniProt Q99677); assay: TGFα-shedding assay, LPA4; assay type: cell-based; details: 293A cells, AP-TGFα release; for EC50: 1 h, with Ki16425 10 μM; for Emax: read-out: Emax ± SEM hLPA4 (converted)
T1 construct: expressed in transfected cells; host or cells: 293A cells
Protocol: (§1) 293A cells expressing LPA receptors were stimulated with the indicated concentration of LPA, 2carbaLPA, and cPA analogues. Receptor-specific alkaline phosphatase-tagged transforming growth factor-α release was calculated by subtracting the responses in the empty vector-transfected cells from those in the receptor-expressing cells. Data are represented as standard error of the mean of three independent replicates.
(§2) 293A cells (Life Technologies, Tokyo, Japan) were cultured in DMEM (Nissui Pharmaceutical, Tokyo, Japan) supplemented with 10% foetal calf serum (Gibco, Waltham, MA, USA) in an incubator at 37 °C and 5% CO2. This assay was conducted according to a modified version of a method described previously. […] The cells were co-transfected with vectors-expressing human LPA1–6, alkaline phosphatase-tagged TGFα (AP-TGFα). As negative controls, cells transfected with an empty vector instead of the receptor-expressing vector were used. After 24 h, the cells were resuspended in Hank’s balanced salt solution (HBSS), seeded in 96-well plates, and stimulated with cPA analogues administered at tenfold concentration of the final concentration. The cPA analogues were diluted with HBSS, 0.01% protease and fatty acid-free BSA (SERVA Electrophoresis GmbH, Heidelberg, Germany). Cells for LPA4, LPA5, and LPA6 analysis were treated with Ki16425 (final concentration: 10 μM), 5 min before treatment with the cPA analogues. After incubation for 1 h at 37 °C, 80 µL of the supernatant was transferred to fresh 96-well plates. An equal volume of 1 mM p-NPP solution [120 mM Tris–HCl (pH 9.5), 40 mM NaCl, and 10 mM MgCl2] was added to both the supernatant and the cells. Alkaline phosphatase activity was calculated by measuring absorbance at 405 nm using the Cytation 3 plate reader (BioTek, Winooski, VT, USA).

[2] = molecular target: T2, hLPA5 (Homo sapiens, UniProt Q9H1C0); assay: TGFα-shedding assay, LPA5; assay type: cell-based; details: 293A cells, AP-TGFα release; for EC50: 1 h, with Ki16425 10 μM; for Emax: read-out: Emax ± SEM hLPA5 (converted)
T2 construct: expressed in transfected cells; host or cells: 293A cells
T2 sequence (Q9H1C0 whole entry): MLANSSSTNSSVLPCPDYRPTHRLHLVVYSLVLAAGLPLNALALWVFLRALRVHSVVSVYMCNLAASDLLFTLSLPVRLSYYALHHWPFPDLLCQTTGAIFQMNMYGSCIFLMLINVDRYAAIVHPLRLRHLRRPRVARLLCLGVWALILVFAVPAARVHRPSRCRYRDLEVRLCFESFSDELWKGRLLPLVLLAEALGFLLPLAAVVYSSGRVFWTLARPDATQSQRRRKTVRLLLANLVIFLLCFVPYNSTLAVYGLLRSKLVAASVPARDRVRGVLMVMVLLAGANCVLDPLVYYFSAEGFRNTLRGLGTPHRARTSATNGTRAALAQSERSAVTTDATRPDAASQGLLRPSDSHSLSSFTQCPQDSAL
Protocol: as §1, §2

[3] = molecular target: T3, hLPA6 (Homo sapiens, UniProt P43657); assay: TGFα-shedding assay, LPA6; assay type: cell-based; details: 293A cells, AP-TGFα release; for EC50: 1 h; for Emax: read-out: Emax ± SEM hLPA6 (converted)
T3 construct: expressed in transfected cells; host or cells: 293A cells
T3 sequence (P43657 1-344): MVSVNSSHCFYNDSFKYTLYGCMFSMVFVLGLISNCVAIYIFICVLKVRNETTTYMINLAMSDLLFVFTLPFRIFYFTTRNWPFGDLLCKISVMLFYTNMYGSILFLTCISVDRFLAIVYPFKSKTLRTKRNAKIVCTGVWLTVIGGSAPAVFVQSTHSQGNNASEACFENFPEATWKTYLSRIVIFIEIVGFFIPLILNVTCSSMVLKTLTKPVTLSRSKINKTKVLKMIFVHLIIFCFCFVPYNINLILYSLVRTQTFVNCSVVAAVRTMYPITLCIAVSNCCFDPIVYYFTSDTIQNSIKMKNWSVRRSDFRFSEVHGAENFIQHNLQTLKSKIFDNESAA
Protocol: as §1, §2

[4] = molecular target: T4, human recombinant ATX (Homo sapiens, UniProt Q13822); assay: LC-QqQ assay of LPC cleavage by ATX (LPA 16:0 production); assay type: biochemical; details: for ATX inhibitory activity (LPA 16:0 production, LC-QqQ): 10 µM, LPC 16:0 300 µM, ATX 50 nM, 2 h, 37 °C; for Inhibition of the lysoPLD activity of ATX: stated in Conclusions, assay and concentration not given
T4 construct: purchased Cayman Chemical
Protocol: Figure 5 Inhibition of lysophospholipase D activity of autotaxin (ATX) by cyclic phosphatidic acid (cPA) analogues. (a) Concentration–response curves for the inhibition of ATX activity as measured by the […] of the substrate lysophosphatidylcholine (LPC) using choline oxidase and peroxidase. LPC 16:0 (final concentration: 300 µM, above its critical micellar concentration [CMC]), human recombinant ATX (final concentration: 50 nM), and various concentrations of cPA analogues were used for incubation with 4-aminoantipyrine, TOOS (final concentration: 0.05% (w/v) each), choline oxidase and peroxidase (final concentration: 10 U/mL each) in the ATX assay buffer. The absorbance at a wavelength of 555 nm was measured at 0 and 2 h incubation at 37 °C. Inhibition was calculated as percentage (%) of reduction in absorbance compared with absorbance in the vehicle control (without cPA analogues) after subtraction of the value measured at time 0. Data are represented as mean ± standard deviation (n = 3–4 samples). (b) Inhibition of ATX activity measured by lysophosphatidic acid (LPA 16:0) production via liquid chromatography coupled to triple quadrupole mass spectrometry (LC-QqQ). The substrate LPC 16:0 (final concentration: 300 µM) was incubated with human recombinant ATX (final concentration: 50 nM) and cPA analogues (final concentration: 10 μM) for 2 h at 37 °C. The ATX product, LPA 16:0, was quantified by LC-QqQ. Inhibition was calculated as percentage (%) of reduction in LPA production compared with LPA production in the vehicle control (without cPA analogues). Data are represented as mean ± standard deviation (n = 5–6 samples). TEXT PRINTED IN THE PICTURE: (b) LPA: ATX Inhibition, %: ND
ATX (4 µL, final concentration: 50 nM) and cPA analogues (4 µL, final concentration: 10 µM) were added to a 200-µL siliconized microcentrifuge tube and mixed with 32 µL of LPC 16:0 (final concentration: 300 µM) in ATX assay buffer. After incubation at 37 °C for 2 h, 160 µL of acidic methanol was added to stop enzymatic reaction. Sample solutions were filtered, and the LPA 16:0 production was analysed using LC-QqQ as per methods described previously. Inhibition was calculated as a percentage (%) of reduction in LPA production compared to LPA production in the vehicle control (without cPA analogues).

T1 sequence (Q99677 whole entry): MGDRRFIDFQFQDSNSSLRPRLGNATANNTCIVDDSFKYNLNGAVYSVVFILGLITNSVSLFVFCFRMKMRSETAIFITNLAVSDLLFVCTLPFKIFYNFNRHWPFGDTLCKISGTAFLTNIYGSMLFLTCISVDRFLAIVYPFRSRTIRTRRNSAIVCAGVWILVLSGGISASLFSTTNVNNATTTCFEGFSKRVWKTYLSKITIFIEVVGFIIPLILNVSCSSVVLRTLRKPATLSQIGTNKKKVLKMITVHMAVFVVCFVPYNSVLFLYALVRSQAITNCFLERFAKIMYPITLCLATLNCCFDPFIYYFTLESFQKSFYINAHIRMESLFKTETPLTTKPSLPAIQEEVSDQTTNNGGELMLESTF

With `CCCCCCCC/C=C\CCCCCCCC(=O)OCC(CO)CP(=O)(O)O` (centres unmarked) [2carbaLPA 18:1, 2-carba-lysophosphatidic acid] the EC50 [1] was 1 nM, the Emax [1] was 24.9% and the EC50 [2] was 50.2 nM. It also gave an Emax [2] of 38.3%, an EC50 ([3]; with Ki16425 10 μM) of 90.9 nM and an Emax [3] of 29.3%.

Work on `CCCCCCCC/C=C\CCCCCCCC(=O)OCC1COP(=O)(O)C1` (centres unmarked) [2ccPA 18:1, 2-carba-cyclic phosphatidic acid] yielded an EC50 [1] of 71.9 nM, an Emax [1] of 19.6% and an EC50 [2] of 973 nM. For the same compound, the Emax [2] was 31.7% and the EC50 ([3]; bound) was greater than 3000 nM.

Compound `CCCCCCCC/C=C\CCCCCCCC(=O)OC[C@@H](O)CCP(=O)(O)O` [3carba LPA 18:1, 3-carba-lysophosphatidic acid] has an EC50 [1] of 1.9 nM, an Emax [1] of 23.5% and an EC50 [2] of 89.3 nM. The Emax [2] was 35.5%, the EC50 ([3]; with Ki16425 10 μM) was 132 nM and the Emax [3] was 27.1%. For the same compound, the “ATX inhibitory activity (LPA 16:0 production, LC-QqQ)” value (“ATX inhibitory activity” below) [4] was “significantly stronger than that of 3ccPA”.

With `CCCCCCCC/C=C\CCCCCCCC(=O)OC[C@@H]1CCP(=O)(O)O1` [3ccPA 18:1, 3-carba-cyclic phosphatidic acid] the EC50 [1] was 92.3 nM, the Emax [1] was 23.3% and the EC50 [2] was 2230 nM. For the same compound, the Emax [2] was 51.2%, the EC50 ([3]; bound) was greater than 3000 nM and the “ATX inhibitory activity” value [4] was “weak”. The “Inhibition of the lysoPLD activity of ATX” value [4] was 30%.

`CCCCCCCC/C=C\CCCCCCCC(=O)OC[C@@H]1COP(=O)(O)O1` [cPA 18:1, 1-Oleoyl-cPA] showed an EC50 [1] of 32.8 nM, an Emax [1] of 17.2% and an EC50 [2] of 354 nM. The Emax [2] was 35.6%, the EC50 ([3]; bound) was greater than 3000 nM and the “ATX inhibitory activity” value [4] was “poor ATX inhibitor”. The “Inhibition of the lysoPLD activity of ATX” value [4] was 10%.

Source: article PMC8405639, “2-Carba-lysophosphatidic acid is a novel β-lysophosphatidic acid analogue with high potential for lysophosphatidic acid receptor activation and autotaxin inhibition” (Scientific Reports, 2021)
